{"source": "patent US4940723A", "about": "“Use of bis-(5-amidino-2-benzimidazolyl) methane (BABIM) to treat arthritis” (University of North Carolina, Chapel Hill, priority 1988, dated 1990)", "key": {"PG-APS-induced arthritis [1]": {"system": "PG-APS-induced arthritis", "experiment": "Clinical scoring of PG-APS-induced arthritis", "assay_type": "in vivo, Lewis rats", "method": "(§1) Inbred female Lewis rats were purchased from Charles River Laboratories, Inc. Their mean body weight at the start of the study was 145 g. Arthritis was induced by a single intraperitoneal injection of the 10S fraction of purified cell wall material in PBS. The volume was 0.5 ml, and the dose of PG-APS was equivalent to 15 μg of rhamnose content per gram of body weight. For the administration of BABIM into the tail vein the animals were lightly anesthetized with ether. The inhibitor was contained in 0.1 ml of saline. Control animals were injected in the same way, but received saline only. All rats had free access to food and water. Nineteen days after the initiation of arthritis, they were killed with an overdose of ether.\nSeverity of the arthritis was judged daily for the first 11 days after PG-APS injection and every one to three days. Involvement of each extremity was quantified on a scale from 0-4, yielding a maximum combined score of 16. Grading was restricted to the wrist and ankle joints and all joints distal from there. The individual score was based on the number of joints involved, the degree of cutaneous erythema, the extent of the swelling of the skin and periarticular soft tissue, and the enlargement and deformities of the joints.\nThe basic design of the experiments was as follows. Arthritis was induced in two groups of rats by the intraperitoneal application of PG-APS fragments. One group of animals received repeated injections of BABIM dissolved in saline, while the other group received saline only. The inhibitor dose of 10 mg/kg body weight was selected because it has been found effective in preliminary studies.\n(§2) The dosing with inhibitor was begun two days before the induction of arthritis and was continued on a daily basis through day 6. From"}, "PG-APS-induced arthritis [2]": {"system": "PG-APS-induced arthritis", "experiment": "Histological grading of the severity of PG-APS-induced arthritis (hind leg)", "assay_type": "in vivo, Lewis rats", "method": "as §1\n(§3) After the rats were killed, autopsies were performed. The liver, spleen, kidneys, adrenal glands, and the skinned distal hind legs were saved for further examination. The livers were weighed individually, and a sample of each was frozen and held for ELISA of PG-APS fragments. All other tissues were fixed in phosphate-buffered formalin solution. The bones were decalcified in formic acid-sodium citrate solution. Sections were stained with hematoxylin and eosin.\nFor this evaluation the hind legs were used because they were more severely involved than the front legs. Both hind legs were studied, but as the disease processes were always symmetrical only one leg was scored. Included in the histologic sections were the distal tibia with the ankle joint, the tarsal bones, and the metatarsals. These were ranked on a scale of 0-4, based on the extent of bone marrow hyperplasia, the density of neutrophilic infiltration in bone and soft tissues, the degree of destruction of trabecular and cortical bone, and the magnitude of the synovial and periosteal proliferative response.\nas §2"}, "[3]": {"system": "PG-APS induced granulomatous hepatitis", "experiment": "Liver weight and hepatic granulomata (PG-APS-induced granulomatous hepatitis)", "assay_type": "in vivo, Lewis rats", "method": "as §1, §3, §2"}, "PG-APS deposits in liver": {"system": "PG-APS deposits in liver", "experiment": "Quantification of PG-APS deposits in liver tissue (ELISA)", "assay_type": "in vivo, Lewis rats", "method": "Measurements were based on a solid-phase enzyme-linked immunosorbent assay (ELISA) as known in the art. Briefly, microtiter plates were charged with group A cell wall antibodies and non-specific binding sites were blocked with human albumin. The coated walls were interacted with the tissue samples, and retention of PG-APS was determined from phosphate hydrolysis following sequential addition of affinity-purified biotinylated cell wall antibodies, avidin-alkaline phosphatase complexes and enzyme substrate. Standard curves were prepared with various amounts of the 10S PG-APS material and were used to correlate enzyme activity with levels of tissue deposits.\nas §1, with “of ether. […]” for “of ether.”"}, "granulomatous splenitis": {"system": "granulomatous splenitis", "experiment": "Splenic granulomatous involvement (PG-APS-induced granulomatous splenitis)", "assay_type": "in vivo, Lewis rats", "method": "as §1, §3, §2\n*Disease was scored on a scale of 0-4, based on the percentage of\ngranulomatous replacement of splenic parenchyma, where 0 = none, 1 = <25%"}, "[4]": {"experiment": "Toxicity observation (physical, behavioral, organ histology) in BABIM-treated rats", "assay_type": "in vivo, Lewis rats", "method": "as §3, §2"}, "[5]": {"experiment": "Dissolution in isotonic saline", "assay_type": "physicochemical", "method": "BABIM was synthesized according to established procedures. Purity of the compound was ascertained by infrared and nuclear magnetic resonance spectroscopy, thin-layer chromatography and elemental analysis. […] Solutions were prepared fresh on the day they were used."}, "trypsin": {"system": "trypsin", "conditions": "in words; cited from earlier work"}, "plasmin": {"system": "plasmin", "conditions": "in words; cited from earlier work"}, "urokinase": {"system": "urokinase", "conditions": "in words; cited from earlier work"}, "Clr": {"system": "Clr", "conditions": "in words; cited from earlier work"}, "Cls": {"system": "Cls", "conditions": "in words; cited from earlier work"}, "hemolytic complement": {"system": "hemolytic complement", "conditions": "in words; cited from earlier work"}, "adjuvant arthritis": {"system": "adjuvant arthritis", "conditions": "Sprague-Dawley rats; cited from earlier work"}}, "note": "Several values for one entry are separate records, joined by “and”; a condition that tells them apart may be missing. Equal entries are not always repeated.", "data": [{"smiles": "N=C(N)c1ccc2nc(Cc3nc4ccc(C(=N)N)cc4[nH]3)[nH]c2c1", "note": "[BABIM, bis-(5-amidino-2-benzimidazolyl) methane]", "values": [{"measurement": "Effect of 10 mg/kg dose in preliminary studies", "setting": "PG-APS-induced arthritis [1]; 10 mg/kg body weight, preliminary studies", "result": "effective"}, {"measurement": "Suppression of clinical signs of arthritis", "setting": "PG-APS-induced arthritis [1]; FIG. 1, initial response and recurrence, 10 mg/kg", "result": "suppressed the clinical signs of arthritis dramatically"}, {"measurement": "Relative suppression of arthritis versus hepatic and splenic granulomatous response", "setting": "PG-APS-induced arthritis [1]; arthritis component compared with granulomata", "result": "more effectively dealt with"}, {"measurement": "Clinical score (individual animal)", "setting": "PG-APS-induced arthritis [1]; individual BABIM-treated rats, final day (day 19), 10 mg/kg i.v. from day -2, scale 0-4 per extremity, maximum combined 16, 10 mg/kg", "result": "0 and 1 and 2"}, {"measurement": "Treated rats completely free of arthritis at the initial peak", "setting": "PG-APS-induced arthritis [1]; initial peak", "result": "3 of the 7 treated rats"}, {"measurement": "Clinical score, Mean ± SD", "setting": "PG-APS-induced arthritis [1]; n=7, final day of experiment, P < 0.0001 versus vehicle (6.79 ± 2.86)", "result": "0.43 ± 0.79"}, {"measurement": "Treated rats without symptoms during the recurrence", "setting": "PG-APS-induced arthritis [1]; recurrence", "result": "five"}, {"measurement": "Blockade of recurrence of the disease", "setting": "PG-APS-induced arthritis [1]; versus primary response", "result": "blocked as completely as the primary response"}, {"measurement": "Bone marrow composition in calcaneus", "setting": "PG-APS-induced arthritis [2]; FIG. 2B, day 19", "result": "Predominantly fatty marrow"}, {"measurement": "Inflammation of synovial recess of ankle joint", "setting": "PG-APS-induced arthritis [2]; FIG. 4B, day 19", "result": "inflammation is absent"}, {"measurement": "Appearance of joints and bone marrow spaces", "setting": "PG-APS-induced arthritis [2]; cell wall-injected and BABIM-treated Lewis rats", "result": "pristine appearance"}, {"measurement": "BABIM-treated animals with complete absence of histological joint/bone abnormalities", "setting": "PG-APS-induced arthritis [2]; day 19, FIGS. 2B, 3B, 4B", "result": "five"}, {"measurement": "Histologic score (individual animal)", "setting": "PG-APS-induced arthritis [2]; individual BABIM-treated rats, day 19, scale 0-4, 10 mg/kg i.v., 10 mg/kg", "result": "0 and 1.5 and 1"}, {"measurement": "Histologic score, Mean ± SD", "setting": "PG-APS-induced arthritis [2]; n=7, day 19, P < 0.0001 versus vehicle (2.81 ± 0.46)", "result": "0.36 ± 0.63"}, {"measurement": "Joint changes in the two BABIM-treated animals that developed joint disease", "setting": "PG-APS-induced arthritis [2]; versus untreated rats", "result": "on a much smaller scale"}, {"measurement": "Reduction in the number of hepatic granulomata", "setting": "[3]; 0.5 cm^2 liver sections, versus untreated", "result": "two-thirds"}, {"measurement": "Granulomata, No. per section, Mean ± SD", "setting": "[3]; liver, 0.5 cm^2 sections, n=7, P < 0.005 versus vehicle (81.8 ± 34.5)", "result": "25.6 ± 26.3"}, {"measurement": "Percentage of centrally necrotic lesions", "setting": "[3]; liver, both groups", "result": "approximately 50%"}, {"measurement": "Granulomata, % with necrosis", "setting": "[3]; liver, n=7, vehicle 56", "result": 43, "unit": "%"}, {"measurement": "Weight of Liver, Mean ± SD", "setting": "[3]; n=7, day 19, P < 0.002 versus vehicle (18.5 ± 3.8)", "result": "11.0 ± 3.5", "unit": "gm"}, {"measurement": "Size and makeup of hepatic granulomata", "setting": "[3]; versus untreated animals", "result": "same size and makeup"}, {"measurement": "PG-APS deposits, Mean ± SD", "setting": "PG-APS deposits in liver; liver, n=7, vehicle 0.226 ± 0.072", "result": "0.237 ± 0.055", "unit": "mg"}, {"measurement": "Total amounts of PG-APS fragments deposited in liver", "setting": "PG-APS deposits in liver; versus untreated animals", "result": "nearly the same"}, {"measurement": "Inhibitor-treated animals with granulomatous inflammation in the spleen", "setting": "granulomatous splenitis; all untreated rats affected", "result": "three"}, {"measurement": "Splenic disease score, Mean ± SD", "setting": "granulomatous splenitis; n=7, scale 0-4, not significantly different from vehicle 2.63 ± 1.3 (P > 0.2)", "result": "1.71 ± 1.5"}, {"measurement": "BABIM recipients rated the highest splenic grade (score of 4)", "setting": "granulomatous splenitis; rat, in vivo", "result": "three"}, {"measurement": "BABIM recipients with no splenic disease", "setting": "granulomatous splenitis; rat, in vivo", "result": "four"}, {"measurement": "Physical or behavioral abnormalities caused by the drug", "setting": "[4]; 10 mg/kg, repeated i.v. injections", "result": "None of the recipients of BABIM showed any physical or behavioral abnormalities"}, {"measurement": "BABIM related toxicity, histological examination", "setting": "[4]; liver, kidney, adrenal glands, and spleen", "result": "absence of BABIM related toxicity"}, {"measurement": "Solubility in isotonic saline", "setting": "[5]", "result": "easily dissolved"}, {"measurement": "Trypsin inhibition", "setting": "trypsin", "result": "potent inhibitor"}, {"measurement": "Plasmin inhibition", "setting": "plasmin", "result": "potent inhibitor"}, {"measurement": "Urokinase inhibition", "setting": "urokinase", "result": "potent inhibitor"}, {"measurement": "Inhibition in assays of Clr", "setting": "Clr", "result": "only weakly inhibitory"}, {"measurement": "Inhibition in assays of Cls", "setting": "Cls", "result": "only weakly inhibitory"}, {"measurement": "Inhibition in hemolytic complement tests", "setting": "hemolytic complement", "result": "only weakly inhibitory"}]}, {"smiles": "N=C(N)c1ccc2cc(OC(=O)c3ccc(N=C(N)N)cc3)ccc2c1", "note": "[FUT-175]", "values": [{"measurement": "Influence on adjuvant arthritis", "setting": "adjuvant arthritis", "result": "beneficial influence"}]}]}
